According to the CheMixHub viscosity set:

Assay: xn = mol fraction of the nth substance listed

[Ca+2].[Cl-].[Cl-] + O
Details	viscosity [mPa·s]
293.15 K, 101 kPa, x1 = 0.059	2.97
298.15 K, 101 kPa, x1 = 0.000396	0.8977
298.15 K, 101 kPa, x1 = 0.00043	0.8982
298.15 K, 101 kPa, x1 = 0.00081	0.9042
298.15 K, 101 kPa, x1 = 0.000844	0.9046
298.15 K, 101 kPa, x1 = 0.00106	0.9082
298.15 K, 101 kPa, x1 = 0.00107	0.9081
298.15 K, 101 kPa, x1 = 0.00123	0.9106
298.15 K, 101 kPa, x1 = 0.0013	0.9117
298.15 K, 101 kPa, x1 = 0.00147	0.9145
298.15 K, 101 kPa, x1 = 0.00151	0.9149
298.15 K, 101 kPa, x1 = 0.00175	0.9186
298.15 K, 101 kPa, x1 = 0.002367	0.9277
298.15 K, 101 kPa, x1 = 0.002527	0.9302
298.15 K, 101 kPa, x1 = 0.002586	0.9311
298.15 K, 101 kPa, x1 = 0.003329	0.9425
298.15 K, 101 kPa, x1 = 0.003395	0.9435
298.15 K, 101 kPa, x1 = 0.003497	0.945
298.15 K, 101 kPa, x1 = 0.003672	0.9476
298.15 K, 101 kPa, x1 = 0.004546	0.9609
298.15 K, 101 kPa, x1 = 0.004721	0.9637
298.15 K, 101 kPa, x1 = 0.005244	0.9719
298.15 K, 101 kPa, x1 = 0.006244	0.9873
298.15 K, 101 kPa, x1 = 0.007041	1
298.15 K, 101 kPa, x1 = 0.007167	1.002
298.15 K, 101 kPa, x1 = 0.007446	1.006
298.15 K, 101 kPa, x1 = 0.008695	1.027
298.15 K, 101 kPa, x1 = 0.009449	1.039
298.15 K, 101 kPa, x1 = 0.009885	1.046
298.15 K, 101 kPa, x1 = 0.01022	1.052
298.15 K, 101 kPa, x1 = 0.01042	1.055
298.15 K, 101 kPa, x1 = 0.01059	1.058
298.15 K, 101 kPa, x1 = 0.01077	1.061
298.15 K, 101 kPa, x1 = 0.01094	1.064
298.15 K, 101 kPa, x1 = 0.01192	1.081
298.15 K, 101 kPa, x1 = 0.01272	1.095
298.15 K, 101 kPa, x1 = 0.01378	1.114
298.15 K, 101 kPa, x1 = 0.01401	1.118
298.15 K, 101 kPa, x1 = 0.01513	1.139
298.15 K, 101 kPa, x1 = 0.01538	1.143
298.15 K, 101 kPa, x1 = 0.01928	1.219
298.15 K, 101 kPa, x1 = 0.02043	1.243
298.15 K, 101 kPa, x1 = 0.02048	1.244
298.15 K, 101 kPa, x1 = 0.02097	1.254
298.15 K, 101 kPa, x1 = 0.02327	1.304
298.15 K, 101 kPa, x1 = 0.02529	1.35
298.15 K, 101 kPa, x1 = 0.02589	1.364
298.15 K, 101 kPa, x1 = 0.0267	1.383
298.15 K, 101 kPa, x1 = 0.027	1.391
298.15 K, 101 kPa, x1 = 0.02942	1.451
298.15 K, 101 kPa, x1 = 0.02988	1.464
298.15 K, 101 kPa, x1 = 0.03066	1.484
298.15 K, 101 kPa, x1 = 0.03069	1.485
298.15 K, 101 kPa, x1 = 0.0311	1.496
298.15 K, 101 kPa, x1 = 0.03274	1.541
298.15 K, 101 kPa, x1 = 0.03315	1.553
298.15 K, 101 kPa, x1 = 0.03378	1.572
298.15 K, 101 kPa, x1 = 0.03442	1.59
298.15 K, 101 kPa, x1 = 0.03633	1.648
298.15 K, 101 kPa, x1 = 0.03656	1.654
298.15 K, 101 kPa, x1 = 0.03673	1.66
298.15 K, 101 kPa, x1 = 0.03831	1.711
298.15 K, 101 kPa, x1 = 0.03856	1.719
298.15 K, 101 kPa, x1 = 0.04162	1.824
298.15 K, 101 kPa, x1 = 0.04322	1.883
298.15 K, 101 kPa, x1 = 0.04455	1.933
298.15 K, 101 kPa, x1 = 0.04537	1.967
298.15 K, 101 kPa, x1 = 0.04781	2.068
298.15 K, 101 kPa, x1 = 0.04866	2.105
298.15 K, 101 kPa, x1 = 0.0498	2.157
298.15 K, 101 kPa, x1 = 0.0506	2.194
298.15 K, 101 kPa, x1 = 0.0536	2.342
298.15 K, 101 kPa, x1 = 0.05494	2.412
298.15 K, 101 kPa, x1 = 0.05842	2.611
298.15 K, 101 kPa, x1 = 0.06081	2.761
298.15 K, 101 kPa, x1 = 0.06128	2.791
298.15 K, 101 kPa, x1 = 0.065	3.054
298.15 K, 101 kPa, x1 = 0.06579	3.114
298.15 K, 101 kPa, x1 = 0.06654	3.173
298.15 K, 101 kPa, x1 = 0.06668	3.182
298.15 K, 101 kPa, x1 = 0.07055	3.515
298.15 K, 101 kPa, x1 = 0.07902	4.414
298.15 K, 101 kPa, x1 = 0.08019	4.563
298.15 K, 101 kPa, x1 = 0.08048	4.6
298.15 K, 101 kPa, x1 = 0.08806	5.733
298.15 K, 101 kPa, x1 = 0.08818	5.754
298.15 K, 101 kPa, x1 = 0.09192	6.437
298.15 K, 101 kPa, x1 = 0.09327	6.707
298.15 K, 101 kPa, x1 = 0.09562	7.209
298.15 K, 101 kPa, x1 = 0.09975	8.198
298.15 K, 101 kPa, x1 = 0.1012	8.586
298.15 K, 101 kPa, x1 = 0.1071	10.34
298.15 K, 101 kPa, x1 = 0.1099	11.29
298.15 K, 101 kPa, x1 = 0.1131	12.5
298.15 K, 101 kPa, x1 = 0.1167	14.03
298.15 K, 101 kPa, x1 = 0.1168	14.08
298.15 K, 101 kPa, x1 = 0.1185	14.84
298.15 K, 101 kPa, x1 = 0.1243	17.82
298.15 K, 101.3 kPa, x1 = 0.03478	1.609
298.15 K, 101.3 kPa, x1 = 0.05127	2.238
